Data: US20220265713A1, “SPHINGOLIPIDS FOR GENERATING REGULATORY CD4+ T CELLS” (Deutsches Krebsforschungszentrum, priority 2019, published 2022)

Experiments:
[1] = system: EAE mice; assay: EAE mouse model for multiple sclerosis (MOG35-55 immunization), clinical scoring; type: in vivo; details: C57BL/6 mice, sphinganine 1000 μg/kg body weight intraperitoneally, one injection every two days, day 1 to day 15, FIG. 5
Description: EAE induction and monitoring. Each mouse was subcutaneously immunized with 200 μg MOG35-55 peptide emulsified in Freund's Complete Adjuvant. Pertussis toxin (400 ng per mouse) was injected intraperitoneally. Where indicated, mice were intraperitoneally injected with sphinganine (every other day from the day of immunization to the end of the experiments). EAE symptoms were scored every day using the following scoring standard: 0, no sign; 1, limp tail; 2, paraparesis (incomplete paralysis of 1 or 2 hind limbs); 3, paraplegia (complete paralysis of 2 hind limbs); 4, paraplegia with forelimb weakness or paralysis; 5, moribund state or death. For the mouse welfare reason, we sacrificed the mice if the score reached 3. […] C57BL/6 mice were subcutaneously immunized with 200 μg MOG35-55 peptide emulsified in Freund's Complete Adjuvant to induce EAE development. Pertussis toxin (400 ng per mouse) was injected intraperitoneally. Mice were intraperitoneally injected with sphinganine (1000 μg/kg body weight, one injection every two days, from day 1 to day 15). EAE symptoms were scored every day.

[2] = system: naïve CD4+ T cells; assay: Th17 cell in vitro differentiation of naïve CD4+ T cells (flow cytometry of IL-17); type: cell-based, mouse; details: sphinganine 5 μM, three days
Description: FIG. 4. Sphinganine promoted the Treg cell in vitro generation and suppressed the inflammatory Th17 cell formation. The YFP-negative CD4^+non-Treg naïve T cells were FACS-sorted (1 ×10^5 cells in 250 μl complete medium) from the Foxp3Cre-YFP mice. The naive T cells were activated with the anti-CD3 and anti-CD28 for three days, in the presence or absence of cytokine TGFβ (5 ng/ml) and IL-2 (10 ng/ml) for Treg cells and TGFβ (5 ng/ml), IL-6 (20 ng/ml) and anti-IFNy (10 μg/ml) for Th17 cells. A: flow cytometry analysis of Foxp3 protein expression after induction of Treg cell formation with sphinganine (5 μM) in the presence of cytokine TGFβ (5 ng/ml) or vehicle control DMSO (no TGFβ). B: Flow cytometry analysis of IL-17 protein expression after induction of Th17 cell formation with TGFβ (5 ng/ml), IL-6 (20 ng/ml) and anti-IFNy (10 μg/ml) in the presence or absence of sphinganine (5 μM). C: Flow cytometry analysis of Foxp3 protein expression after induction of Treg cell formation in the presence of TGFβ (5 ng/ml) and L- serine (5 μM), 3-KDS (5 μM), shinganine (5 μM), dihydroceramide (50 nM), ceramide (50 nM), sphingosine (1 μM), sphingosine-1-phosphate (1 μM), shinganine-1-phosphate (1 μM), or vehicle control DMSO (TGFβ only). […]
(§1) Flow Cytometry. […] Samples were run on the LSR II and analyzed using the Flowjo software (FlowJo, LLC, BD). […]

[3] = system: naïve CD4+ T cells; assay: Treg cell in vitro differentiation of naïve CD4+ T cells (flow cytometry of Foxp3); type: cell-based, mouse; details: sphinganine 5 μM, three days; for Foxp3 protein expression: anti-CD3, anti-CD28, TGFβ 5 ng/ml, IL-2 10 ng/ml, vs vehicle DMSO, FIG. 4A/4C
Description: FIG. 4. Sphinganine promoted the Treg cell in vitro generation and suppressed the inflammatory Th17 cell formation. The YFP-negative CD4^+non-Treg naïve T cells were FACS-sorted (1 ×10^5 cells in 250 μl complete medium) from the Foxp3Cre-YFP mice. The naive T cells were activated with the anti-CD3 and anti-CD28 for three days, in the presence or absence of cytokine TGFβ (5 ng/ml) and IL-2 (10 ng/ml) for Treg cells and TGFβ (5 ng/ml), IL-6 (20 ng/ml) and anti-IFNy (10 μg/ml) for Th17 cells. A: flow cytometry analysis of Foxp3 protein expression after induction of Treg cell formation with sphinganine (5 μM) in the presence of cytokine TGFβ (5 ng/ml) or vehicle control DMSO (no TGFβ). B: Flow cytometry analysis of IL-17 protein expression after induction of Th17 cell formation with TGFβ (5 ng/ml), IL-6 (20 ng/ml) and anti-IFNy (10 μg/ml) in the presence or absence of sphinganine (5 μM). C: Flow cytometry analysis of Foxp3 protein expression after induction of Treg cell formation in the presence of TGFβ (5 ng/ml) and L- serine (5 μM), 3-KDS (5 μM), shinganine (5 μM), dihydroceramide (50 nM), ceramide (50 nM), sphingosine (1 μM), sphingosine-1-phosphate (1 μM), shinganine-1-phosphate (1 μM), or vehicle control DMSO (TGFβ only). D: Structures of sphingolipids, as indicated, and sphingolipid biosynthetic pathway are depicted. The numbers in each FACS plot show the percentages of the indicated cell population within the total population of cells shown in the FACS plot.
Mouse primary T cell culture. Complete medium was used for cell culture and was prepared by supplementing RPMI 1640 plain medium with 10% fetal calf serum, penicillin/streptomycin antibiotics and non-essential amino acids. For Treg and Th17 cell in vitro differentiation, naïve splenic T cells were purified from the Sptic2^+/+Foxp3Cre-YFP wild type mice using the flow cytometry sorter. […]
as §1

CCCCCCCCCCCCCCC[C@@H](O)[C@@H](N)CO [sphinganine]
EAE clinical scores / EAE development [1]: reduced | EAE clinical scores / EAE development ([1]; listed as Sphinganine): ameliorated EAE development | IL-17 production / IL-17 protein expression ([2]; Th17 cell-differentiation condition: TGFβ 5 ng/ml, IL-6 20 ng/ml, anti-IFNy 10 μg/ml, FIG. 4B): reduced | inflammatory Th17 cell formation ([2]; TGFβ, IL-6, anti-IFNy): suppressed | Treg cell in vitro generation / Treg cell formation ([3]; Treg cell-inducing condition (anti-CD3, anti-CD28, TGFβ, IL-2)): promoted | Foxp3 protein expression [3]: increase | Foxp3 protein expression ([3]; listed as Sphinganine): further increased
